Reference: patent US10668068B2, “Treating cancer with drug combinations” (The Research Foundation for The State University of New York, priority 2015, dated 2020)

Tests used:
[1] = tested on: EGFR, HER2, Her3 and ErbB4; experiment: Western blotting of EGFR family activation and downstream Akt/Erk in BT474 cells; format: cell-based, human; conditions: 2 hours; for phosphorylation (activation) of EGFR family: ibrutinib 0.05 or 0.1 μM, AVL-292 0.1 μM
Protocol: (§1) Immunoblotting was performed essentially as described previously. Equal amounts of proteins were used. Antibodies used were anti-EGFR (1:1000,), anti-HER2 (1:1000,), anti-ERBB3, ERBB4 antibody, anti-BTK, anti-AKT, ERIK, anti-PLCγ1, PLCγ2 and anti-PARP (1:1000, cell signaling), anti-Flag antibody (1:1000, Sigma), anti-rabbit IgG-HRP and mouse IgG-HRP (1:5000, Jackson ImmunoResearch).

BT474 cells [2] = experiment: Cell growth assay (live cell count), monolayer culture; format: cell-based, human; conditions: 0.01 μM, 3 days
From the text: (§2) For live cell counts, cell growth on 96-well plates were fixed 4% formaldehyde and counterstained with Hoechst 33342 for nuclei.

[3] = tested on: BT474 human breast cancer cells; experiment: Cell cycle analysis (propidium iodide, flow cytometry); format: cell-based
Protocol: After trypsinized, cells were collected and washed with cold PBS. Cells were fixed with 70% ethanol, washed and stained with PI/Triton X-100 staining solution (0.1% triton X-100, 2 μg/ml PI and 0.2 mg/ml DNAse-free RNAse) for 30 min. Samples were analyzed by flow cytometry.

xenografts of SKBR3 = tested on: xenografts of SKBR3
Protocol: NOD/SCID mice were purchased from Jackson Lab (The Jackson Laboratory, Bar Harbor, Me., USA). All mouse procedures were approved by the Animal Care and Use Committees of SUNY Albany and performed in accordance with institutional policies.
For xenograft tumor studies, 1×10^6 SKBR3 cells were suspended in 50 μl Matrigel (BD Biosciences) diluted 1:2 with DMEM and injected into mammary fat pad. Treatment began when tumors were palpable. […] The tumor volume in mm^3 is calculated by the formula: volume=(width)^2×length/2 every 7 days.

[4] = tested on: HER2-positive breast cancer cells; experiment: Cell growth assay (live cell count); format: cell-based; conditions: Homo sapiens, 72 h; 3 days of culture; read-out: IC50 for effect on HER2-positive breast cancer cells
From the text: as §2

[5] = tested on: HER2-positive breast cancer cells; experiment: Apoptosis assay (Alexa Fluor 488 annexin V)
SKBR3 cells [6] = experiment: Cell growth assay (live cell count); format: cell-based, human; conditions: 1 μM, 3 days
From the text: as §2

BTK-C = molecular target: T1, BTK-C (Homo sapiens, UniProt Q06187); experiment: Inhibition of BTK-C kinase activity / activating phosphorylation (FIG. 8A-C); format: cell-based
T1 construct: Flag; expressed in transfected cells; host or cells: SKBR3-BTK-C (SKBR3 human breast cancer cells expressing BTK-C)

BT474 cells [7] = experiment: Nine days NRG1 co-treatment, crystal violet staining; format: cell-based, human; conditions: 9 days, drug 1 uM, NRG1 50 ng/ml
Protocol: (§3) Cells were cultured in 6-well plates for indicated days. Cells were fixed with 3.7% paraformaldehyde for 10 min and washed with PBS. After wash, cells were stained with 0.05% CV for 30 min Whole plate was washed with tape water. Dry plate was added with 0.5 ml methanol to solubilize the dye. Taking an aliquot to 96-well plate and reading CV stain with OD 540. Tumorospheres were counted under low magnification.

SKBR3 cells [8] = experiment: as above; format: cell-based, human; conditions: 9 days, drug 1 uM, NRG1 50 ng/ml
Protocol: as §3

AKT = experiment: Immunoblots of NRG1 effect on HER2, AKT and ERK activation in BT474 and SkBR3 cells; format: cell-based, human; conditions: 2 h
Protocol: as §1

[9] = tested on: HER2-positive breast cancer cells; experiment: Live cell count with NRG1 or EGF (growth factor driven rescue)
breast cancer cells = conditions: cited from earlier work

T1 sequence (Q06187 1-693 isoform Q06187-2): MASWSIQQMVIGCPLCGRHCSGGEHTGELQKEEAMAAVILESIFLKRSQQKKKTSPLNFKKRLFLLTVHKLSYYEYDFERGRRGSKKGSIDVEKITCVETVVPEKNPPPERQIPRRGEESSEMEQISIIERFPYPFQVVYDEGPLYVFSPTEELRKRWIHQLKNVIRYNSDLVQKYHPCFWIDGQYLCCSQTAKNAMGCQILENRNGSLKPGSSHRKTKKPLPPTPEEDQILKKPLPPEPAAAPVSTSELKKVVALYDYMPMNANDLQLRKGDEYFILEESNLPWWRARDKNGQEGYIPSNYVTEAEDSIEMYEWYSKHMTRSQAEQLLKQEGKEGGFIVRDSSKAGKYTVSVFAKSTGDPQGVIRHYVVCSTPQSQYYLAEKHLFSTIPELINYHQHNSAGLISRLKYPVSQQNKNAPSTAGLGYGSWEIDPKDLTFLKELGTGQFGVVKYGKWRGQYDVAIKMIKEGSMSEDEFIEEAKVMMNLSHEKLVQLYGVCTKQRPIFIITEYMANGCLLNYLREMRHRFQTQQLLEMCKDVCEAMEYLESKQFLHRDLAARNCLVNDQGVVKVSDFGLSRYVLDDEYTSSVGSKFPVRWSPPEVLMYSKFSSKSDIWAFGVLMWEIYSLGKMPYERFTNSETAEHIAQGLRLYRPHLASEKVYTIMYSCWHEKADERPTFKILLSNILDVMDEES

Cc1c(NC(=O)c2ccc(C(C)(C)C)cc2)cccc1-c1cn(C)c(=O)c(Nc2ccc(C(=O)N3CCOCC3)cc2)n1 [CGI-1746]
phosphorylation (activation) of EGFR family [1]: but not AVL-292 and CGI-1746, efficiently blocks activation of EGFR, HER2, ErbB3, and ErbB4

C=CC(=O)N1CCC[C@@H](n2nc(-c3ccc(Oc4ccccc4)cc3)c3c(N)ncnc32)C1 [ibrutinib]
cell population, % of control (BT474 cells [2]; BT474 monolayer): 30 % of control
decrease in the number of cells in the S phase ([3]; 0.03 μM, compared with controls): 50%
tumor volume smaller than vehicle control / inhibition of tumor growth (xenografts of SKBR3; 12 mg/kg/day p.o., day 28): 45%
IC50 [4]: 0.03 µM
apoptosis induction compared with lapatinib ([5]; HER2-positive breast cancer cells): 1.5 fold
reduction of cell numbers (SKBR3 cells [6]): more than 80%

C=CC(=O)Nc1cccc(Nc2nc(Nc3ccc(OCCOC)cc3)ncc2F)c1 [AVL-292, N-(3-((5-fluoro-2((4-(2-methoxyethoxy)phenyl)amino)pyrimidin-4-yl)amino)phenyl)acrylamide]
BTK-C activating phosphorylation (BTK-C; FIG. 8C): inhibit BTK-C activating phosphorylation
inhibition of BTK-C kinase activity (BTK-C; compared with ibrutinib): inhibit BTK-C kinase activity to the same degree as ibrutinib
phosphorylation (activation) of EGFR family [1]: does not block EGFR family signaling pathway activation

CS(=O)(=O)CCNCc1ccc(-c2ccc3ncnc(Nc4ccc(OCc5cccc(F)c5)c(Cl)c4)c3c2)o1 [lapatinib]
reduction of cell numbers (BT474 cells [2]; monolayer): fails to reduce HER2-positive breast cancer cell numbers significantly
G1-S arrest ([3]; 24 hours): appreciable G1-S arrest
Akt and Erk phosphorylation / downstream signaling [1]: inhibits both AKT and ERK phosphorylation
drug resistance after NRG1 co-treatment (BT474 cells [7]): yields cells that exhibit lapatinib resistance
drug resistance after NRG1 co-treatment (SKBR3 cells [8]): yields cells that exhibit lapatinib resistance
re-activation of AKT by NRG1 (AKT; co-treatment with NRG1 50 ng/ml): NRG1 re-activates AKT without activation of HER2
activation of HER2, AKT and ERK (AKT; drug alone): blocked
potency in SKBR3 tumor xenograft compared with ibrutinib 12 mg/kg/day (xenografts of SKBR3; lapatinib 75 mg/kg/day p.o.): less potent
number of apoptotic cells ([5]; 0.05 or 0.1 μM, 24 hours): increase in the number of apoptotic cells
rescue from growth inhibition by NRG1 ([9]; 50 ng/ml of NRG1, 3 days): NRG1 application is able to rescue
cell growth suppression ([9]; drug without growth factor, 3 days): potently suppresses cell growth

C/C(O)=C(\C#N)C(=O)Nc1cc(Br)ccc1Br [LFM-A13]
apoptosis levels (breast cancer cells): increase apoptosis levels
